Results from ChEMBL document CHEMBL1150972, “Biochemical and cellular effects of c-Src kinase-selective pyrido[2, 3-d]pyrimidine tyrosine kinase inhibitors” (Biochem Pharmacol, 2000).

How the values were obtained:
[1] = system: HCT-8; assay: Inhibition of HCT-8 cell proliferation; format: functional, cell-based; details: Homo sapiens
[2] = system: HCT-8; assay: Inhibition of HCT-8 clonogenic growth in soft agar without pretreatment; format: functional, cell-based; details: Homo sapiens
[3] = system: SW-620; assay: Inhibition of SW-620 clonogenic growth in soft agar without pretreatment; format: functional, cell-based; details: Homo sapiens
[4] = system: SW-620; assay: Inhibition of SW-620 clonogenic growth in soft agar with pretreatment; format: functional, cell-based; details: Homo sapiens
[5] = target: Fibroblast growth factor receptor 1 (Homo sapiens, UniProt P11362); assay: Inhibition of bFGFR
[6] = system: HT-29; assay: Inhibition of HT-29 clonogenic growth in soft agar without pretreatment; format: functional, cell-based; details: Homo sapiens
[7] = system: HCT-8; assay: Inhibition of HCT-8 clonogenic growth in soft agar with pretreatment; format: functional, cell-based; details: Homo sapiens
[8] = system: HT-29; assay: Inhibition of HT-29 clonogenic growth in soft agar with pretreatment; format: functional, cell-based; details: Homo sapiens
[9] = target: Tyrosine-protein kinase Lck (Homo sapiens, UniProt P06239); assay: Inhibition of Lck
[10] = system: HT-29; assay: Inhibition of HT-29 cell proliferation; format: functional, cell-based; details: Homo sapiens
[11] = system: SW-620; assay: Inhibition of SW-620 cell proliferation; format: functional, cell-based; details: Homo sapiens
[12] = species on record: Homo sapiens; assay: Selectivity for c-Src compared to bFGFR
[13] = target: Platelet-derived growth factor receptor (Homo sapiens, UniProt P09619+P16234); assay: Inhibition of PDGFR; format: protein-complex assay
[14] = species on record: Homo sapiens; assay: Selectivity for c-Src compared to PDGFR
[15] = target: Proto-oncogene tyrosine-protein kinase Src (Homo sapiens, UniProt P12931); assay: Inhibition of c-Src
[16] = target: Epidermal growth factor receptor (Homo sapiens, UniProt P00533)
[17] = system: A-431; assay: Inhibition of 3H-thymidine incorporation into A-431 cells; format: functional, cell-based; details: Homo sapiens
[18] = system: NIH3T3; assay: Inhibition of 3H-thymidine incorporation into NIH3T3 cells; format: functional, cell-based; details: Mus musculus

Chain of Proto-oncogene tyrosine-protein kinase Src (P12931 2-536 limits assumed): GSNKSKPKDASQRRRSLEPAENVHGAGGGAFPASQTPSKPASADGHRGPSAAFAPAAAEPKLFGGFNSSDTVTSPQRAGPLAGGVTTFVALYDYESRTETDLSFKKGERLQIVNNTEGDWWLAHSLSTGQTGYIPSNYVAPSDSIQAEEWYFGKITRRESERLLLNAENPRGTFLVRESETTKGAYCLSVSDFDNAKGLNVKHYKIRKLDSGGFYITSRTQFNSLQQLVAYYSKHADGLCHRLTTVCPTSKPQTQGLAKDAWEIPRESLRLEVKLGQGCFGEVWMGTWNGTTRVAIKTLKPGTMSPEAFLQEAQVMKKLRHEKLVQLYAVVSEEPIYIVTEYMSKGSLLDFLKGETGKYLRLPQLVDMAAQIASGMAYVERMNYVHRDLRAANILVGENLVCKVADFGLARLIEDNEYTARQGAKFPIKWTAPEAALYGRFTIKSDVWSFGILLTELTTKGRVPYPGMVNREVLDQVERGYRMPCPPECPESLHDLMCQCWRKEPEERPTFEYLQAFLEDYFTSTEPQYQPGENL
Chain of Tyrosine-protein kinase Lck (P06239 whole entry): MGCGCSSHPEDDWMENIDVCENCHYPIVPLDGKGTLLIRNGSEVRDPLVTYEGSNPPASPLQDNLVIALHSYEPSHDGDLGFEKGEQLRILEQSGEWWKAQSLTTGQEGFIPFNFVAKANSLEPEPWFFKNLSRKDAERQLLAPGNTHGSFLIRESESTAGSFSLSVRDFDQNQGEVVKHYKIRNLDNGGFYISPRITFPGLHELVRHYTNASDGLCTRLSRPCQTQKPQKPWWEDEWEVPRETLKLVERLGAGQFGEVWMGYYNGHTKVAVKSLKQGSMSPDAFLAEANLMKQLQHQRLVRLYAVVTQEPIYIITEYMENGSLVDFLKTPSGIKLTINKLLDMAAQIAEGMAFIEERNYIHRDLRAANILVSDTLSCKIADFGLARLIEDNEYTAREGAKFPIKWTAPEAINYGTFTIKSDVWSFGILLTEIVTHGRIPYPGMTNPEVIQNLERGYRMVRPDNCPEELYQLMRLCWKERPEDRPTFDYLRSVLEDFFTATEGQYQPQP
Chain of Fibroblast growth factor receptor 1 (P11362 whole entry): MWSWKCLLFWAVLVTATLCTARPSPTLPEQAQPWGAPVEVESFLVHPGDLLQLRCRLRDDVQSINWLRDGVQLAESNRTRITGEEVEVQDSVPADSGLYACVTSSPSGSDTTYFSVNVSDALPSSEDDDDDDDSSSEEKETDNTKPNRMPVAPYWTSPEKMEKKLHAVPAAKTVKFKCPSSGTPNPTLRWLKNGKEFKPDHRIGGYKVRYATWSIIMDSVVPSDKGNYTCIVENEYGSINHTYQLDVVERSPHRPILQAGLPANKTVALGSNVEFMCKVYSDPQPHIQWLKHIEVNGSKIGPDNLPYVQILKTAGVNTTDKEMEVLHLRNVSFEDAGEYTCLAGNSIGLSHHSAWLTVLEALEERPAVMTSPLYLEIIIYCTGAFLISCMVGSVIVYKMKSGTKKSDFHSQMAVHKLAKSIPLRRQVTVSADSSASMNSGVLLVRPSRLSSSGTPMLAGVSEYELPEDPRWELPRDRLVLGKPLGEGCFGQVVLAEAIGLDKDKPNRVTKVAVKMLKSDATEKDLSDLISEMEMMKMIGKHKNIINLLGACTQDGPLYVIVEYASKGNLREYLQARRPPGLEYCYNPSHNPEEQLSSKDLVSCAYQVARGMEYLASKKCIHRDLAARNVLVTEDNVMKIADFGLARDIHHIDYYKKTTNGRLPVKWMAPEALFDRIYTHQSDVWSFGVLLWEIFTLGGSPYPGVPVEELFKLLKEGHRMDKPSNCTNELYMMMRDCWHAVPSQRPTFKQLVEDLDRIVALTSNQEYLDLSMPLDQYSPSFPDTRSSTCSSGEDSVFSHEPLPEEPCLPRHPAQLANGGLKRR
Chain of Epidermal growth factor receptor (P00533 whole entry): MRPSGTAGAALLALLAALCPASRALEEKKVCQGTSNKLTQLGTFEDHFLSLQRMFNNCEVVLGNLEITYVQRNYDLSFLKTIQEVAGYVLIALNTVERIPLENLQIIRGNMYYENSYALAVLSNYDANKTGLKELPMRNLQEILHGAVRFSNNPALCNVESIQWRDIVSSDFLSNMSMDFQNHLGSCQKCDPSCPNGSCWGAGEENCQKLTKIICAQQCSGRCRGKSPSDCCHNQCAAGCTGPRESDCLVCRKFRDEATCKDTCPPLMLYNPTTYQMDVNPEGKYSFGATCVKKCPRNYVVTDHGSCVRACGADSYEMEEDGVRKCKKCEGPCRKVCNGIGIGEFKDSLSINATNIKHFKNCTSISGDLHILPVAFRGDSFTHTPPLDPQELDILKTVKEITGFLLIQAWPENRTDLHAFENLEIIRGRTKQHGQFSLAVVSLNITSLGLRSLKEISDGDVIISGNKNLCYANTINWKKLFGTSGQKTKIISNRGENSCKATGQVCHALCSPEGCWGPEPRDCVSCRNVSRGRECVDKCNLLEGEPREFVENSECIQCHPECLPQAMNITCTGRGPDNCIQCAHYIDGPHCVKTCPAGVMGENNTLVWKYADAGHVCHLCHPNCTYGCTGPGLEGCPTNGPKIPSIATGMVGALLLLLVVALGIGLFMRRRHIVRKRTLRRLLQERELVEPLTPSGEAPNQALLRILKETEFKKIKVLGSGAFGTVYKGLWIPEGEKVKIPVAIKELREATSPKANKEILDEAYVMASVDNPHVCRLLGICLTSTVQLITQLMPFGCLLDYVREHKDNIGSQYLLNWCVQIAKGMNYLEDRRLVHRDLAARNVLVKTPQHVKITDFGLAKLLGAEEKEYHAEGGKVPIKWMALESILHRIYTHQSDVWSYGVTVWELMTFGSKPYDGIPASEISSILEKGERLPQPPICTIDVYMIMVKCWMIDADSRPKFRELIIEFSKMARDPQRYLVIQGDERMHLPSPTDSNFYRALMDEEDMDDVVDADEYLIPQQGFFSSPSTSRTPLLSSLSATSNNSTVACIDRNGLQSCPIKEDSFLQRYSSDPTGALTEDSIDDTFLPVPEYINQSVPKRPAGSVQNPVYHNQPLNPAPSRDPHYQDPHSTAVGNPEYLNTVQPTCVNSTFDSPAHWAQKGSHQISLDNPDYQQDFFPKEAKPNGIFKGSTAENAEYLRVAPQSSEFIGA

| IC50 [1] [nM] | IC50 [2] [nM] | IC50 [3] [nM] | IC50 [4] [nM] | IC50 [5] [nM] | IC50 [6] [nM] | IC50 [7] [nM] | IC50 [8] [nM] | IC50 [9] [nM] | IC50 [10] [nM] | IC50 [11] [nM] | Ratio [12] | IC50 [13] [nM] | Ratio [14] | IC50 [15] [nM] | IC50 [16] [nM] | IC50 [17] [nM] | SMILES | IC50 [18] [nM] |
| --- | --- | --- | --- | --- | --- | --- | --- | --- | --- | --- | --- | --- | --- | --- | --- | --- | --- | --- |
| 1130 | 1300 | 980 | 1130 | 1250 | 1290 | 2520 | 1210 | < 5 | 810 | 924 |  |  |  |  |  |  | CSc1cccc(Nc2ncc3cc(-c4c(Cl)cccc4Cl)c(=O)n(C)c3n2)c1 |  |
| 662 | 1150 | 402 | 1550 |  | 1540 |  | 1530 | < 5 | 617 | 619 |  |  |  |  |  |  | Cn1c(=O)c(-c2c(Cl)cccc2Cl)cc2cnc(Nc3ccc(F)cc3)nc21 |  |
| 1000 | > 5000 |  |  | 244 | < 5000 | > 5000 | 1740 | < 5 | 266 | 156 | 27 | 463 | 51.2 | 9.03 |  |  | CCN(CCOc1ccc(Nc2ncc3cc(-c4c(Cl)cccc4Cl)c(=O)n(C)c3n2)cc1)C(C)=O |  |
| 450 | 260 |  |  | 934 | 1520 | 610 | 464 | < 5 | 461 | 285 | 55.6 | 1430 | 84.9 | 16.8 | 390 | 215 | Cc1cc(Nc2ncc3cc(-c4c(Cl)cccc4Cl)c(=O)n(C)c3n2)ccc1F | 170 |
| 1150 | 1260 | 360 | 460 | 451 | 1010 | 3220 | 750 | < 5 | 579 | 660 | 27.7 | 2340 | 144 | 16.3 |  | 445 | CCOc1ccc(Nc2ncc3cc(-c4c(Cl)cccc4Cl)c(=O)n(C)c3n2)cc1 | 382 |

| SMILES | IC50 [1] [nM] | IC50 [2] [nM] | IC50 [3] [nM] | IC50 [4] [nM] | IC50 [5] [nM] | IC50 [6] [nM] | IC50 [7] [nM] | IC50 [8] [nM] | IC50 [9] [nM] | IC50 [10] [nM] | IC50 [11] [nM] | Ratio [12] | IC50 [13] [nM] | Ratio [14] | IC50 [15] [nM] | IC50 [16] [nM] | IC50 [17] [nM] | IC50 [18] [nM] |
| --- | --- | --- | --- | --- | --- | --- | --- | --- | --- | --- | --- | --- | --- | --- | --- | --- | --- | --- |
| Cn1c(=O)c(-c2c(Cl)cccc2Cl)cc2cnc(Nc3ccc(N4CCOCC4)cc3)nc21 |  | 1260 | 470 | 530 | 98.8 | 1370 | 1380 | 1210 | < 5 |  |  | 11.8 | 636 | 76.2 | 8.35 |  | 245 | 170 |
